Data from PMC8062632, “Structural studies of phosphorylation-dependent interactions between the V2R receptor and arrestin-2” (Nature Communications, 2021).

Columns and labels:
Format in all cases: cell-based
V2R-1 (V2R-T347A) [1] = experiment: FlAsH-BRET recruitment of c-Raf-1 to arrestin2; conditions: HEK293 cells; for ΔBRET ratio, c-Raf-1 recruitment to arrestin2: V2R-1, Argipressin 10 μM, 37 °C, 10 min
Method: The interaction between arrestin2 and c-Raf-1 was measured by the FlAsH-BRET method. […] Data are expressed as relative values of ΔBRET ratio with the mean ± SEM of three independent experiments (n = 3). […] Source data are provided in the Source. Data file.
After 24 h of transfection, the cells were detached and distributed into 96-well plates at a density of ~25,000 cells per well. After another 24 h incubation at 37 °C, the cells were labeled FlAsH-EDT2 for 40 min at 37 °C and washed twice with Tyrode’s buffer (140 mM NaCl, 2.7 mM KCl, 1 mM CaCl2, 12 mM NaHCO3, 5.6 mM D-glucose, 0.5 mM MgCl2, 0.37 mM NaH2PO4, and 25 mM HEPES, pH = 7.4) and stimulated with or without Argipressin (final concentration of 10 μM) at 37 °C for 10 min Luciferase substrate coelenterazine-h was added at a final concentration of 5 μM before light emissions were recorded using a Mithras LB940 microplate reader (Berthold Technologies) equipped with BRET filter sets. The BRET signal was determined by calculating the ratio of the light intensity emitted by YFP ([…]) over the light intensity emitted by Rluc ([…]). Source data are provided in a Source Data file.

V2R-WT = experiment: FlAsH-BRET recruitment of MEK1 to arrestin2; conditions: HEK293 cells; for ΔBRET ratio, MEK1 recruitment to arrestin2: V2R-WT, Argipressin 10 μM, 37 °C, 10 min
Method: (§1) The blue ball: K357 site in arrestin2; Yellow pentagram: the position of FlAsH labeled in MEK1. […] Data are expressed as ΔBRET ratio relative values and represent the mean ± SEM of three independent experiments (n = 3). […] Source data are provided in the Source Data file.
(§2) 24 h after transfection, the cells were detached and distributed into 96-well plates at a density of ~25,000 cells per well. After another 24 h of incubation at 37 °C, the cells were labeled FlAsH-EDT2 for 40 min at 37 °C and washed twice with Tyrode’s buffer (140 mM NaCl, 2.7 mM KCl, 1 mM CaCl2, 12 mM NaHCO3, 5.6 mM D-glucose, 0.5 mM MgCl2, 0.37 mM NaH2PO4, and 25 mM HEPES, pH = 7.4) and stimulated with or without Argipressin (final concentration of 10 μM) at 37 °C for 10 min Luciferase substrate coelenterazine-h was added at a final concentration of 5 μM before light emissions were recorded using a Mithras LB940 microplate reader (Berthold Technologies) equipped with BRET filter sets. The BRET signal was determined by calculating the ratio of the light intensity emitted by YFP ([…]) over the light intensity emitted by Rluc ([…]). Source data are provided in a Source Data file.

V2R-3 (V2R-S357A) = experiment: FlAsH-BRET recruitment of MEK1 to arrestin2; conditions: HEK293 cells; for ΔBRET ratio, MEK1 recruitment to arrestin2: V2R-3, Argipressin 10 μM, 37 °C, 10 min
Method: as §1, §2

[2] = system: V2R-6-7 (V2R-S363A/S364A); experiment: FlAsH-BRET recruitment of MEK1 to arrestin2; conditions: HEK293 cells; for ΔBRET ratio, MEK1 recruitment to arrestin2: V2R-6-7, Argipressin 10 μM, 37 °C, 10 min
Method: as §1, §2

V2R-4 (V2R-T360A) = experiment: FlAsH-BRET recruitment of MEK1 to arrestin2; conditions: HEK293 cells; for ΔBRET ratio, MEK1 recruitment to arrestin2: V2R-4, Argipressin 10 μM, 37 °C, 10 min
Method: as §1, §2

V2R-1 (V2R-T347A) [3] = experiment: FlAsH-BRET recruitment of MEK1 to arrestin2; conditions: HEK293 cells; for ΔBRET ratio, MEK1 recruitment to arrestin2: V2R-1, Argipressin 10 μM, 37 °C, 10 min
Method: as §1, §2

[4] = system: wild-type V2R and V2R mutants; experiment: arrestin2 recruitment BRET assay (V2R-Rluc / arrestin2-YFP); conditions: HEK293 cells; different V2R mutants compared with wild-type V2R; 37 °C, 10 min
Method: (§3) After 24 h of transfection, the cells were detached and distributed into 96-well plates at a density of ~25,000 cells per well. After another 24 h incubation at 37 °C, the cells were washed twice with Tyrode’s buffer (140 mM NaCl, 2.7 mM KCl, 1 mM CaCl2, 12 mM NaHCO3, 5.6 mM D-glucose, 0.5 mM MgCl2, 0.37 mM NaH2PO4, and 25 mM HEPES, pH = 7.4) and incubated with vehicle or different concentration ligands (Argipressin) at 37 °C for 10 min Luciferase substrate coelenterazine-h was added at a final concentration of 5 μM before light emissions were recorded using a Mithras LB940 microplate reader (Berthold Technologies) equipped with BRET filter sets. The BRET signal was determined by calculating the ratio of the light intensity emitted by YFP (530/20 nm) over the light intensity emitted by Rluc (485/20 nm). Source data are provided in a Source Data file.
(§4) Supplementary Fig. 14. Surface expression and arrestin2 recruitment toward different V2R phosphor- […]
(§5) a-b). Elisa experiments to assay the expression levels of the wild type and indicated mutants of V2R or V2R-Rluc in HEK293 cells. Data from three independent experiments (n=3) are presented as mean ± SD. Statistical differences between WT and mutations were determined by two-sided one-way ANOVA with Tukey test. “ns”: the […]
(§6) c). The vasopressin-induced arrestin2 recruitment to different V2R phospho-deficient mutants were compared with V2R-WT, examined by BRET assay in a concentration dependent manner. n = 3 biologically independent replicates were examined for three independent experiments. Data (means ± SEM) of each mutant were normalized to […]
(§7) maximal response of V2R-WT. d). Statistical analysis of the Emax and pEC50 of vasopressin induced arrestin2 recruitment to V2R WT or V2R […]

[5] = system: V2R-S363A/S364A (V2Rpp-6-7 site); experiment: as above; conditions: HEK293 cells, 37 °C, 10 min, normalized to maximal response of V2R-WT
Method: as §3, §4, §5, §6, §7

V2R-T360A (V2Rpp-4 site) = experiment: as above; conditions: HEK293 cells, 37 °C, 10 min, normalized to maximal response of V2R-WT
Method: as §3, §4, §5, §6, §7

[6] = system: V2R-S357A mutant (V2Rpp-3 site); experiment: as above; conditions: HEK293 cells, 37 °C, 10 min, normalized to maximal response of V2R-WT
Method: as §3, §4, §5, §6, §7

For vasopressin, the “c-Raf-1 recruited to arrestin, compared with wild-type V2 receptor” value (V2R-1 (V2R-T347A) [1]; T347A mutant of the V2 receptor, in words) was “significantly less”, the “ΔBRET ratio, c-Raf-1 recruitment to arrestin2” value (V2R-1 (V2R-T347A) [1]; Data1) was 0.006 and the “ΔBRET ratio, c-Raf-1 recruitment to arrestin2” value (V2R-1 (V2R-T347A) [1]; Data2) was 0.002. For the same substance, the “ΔBRET ratio, c-Raf-1 recruitment to arrestin2” value (V2R-1 (V2R-T347A) [1]; Data3) was 0.005, the “ΔBRET ratio, MEK1 recruitment to arrestin2” value (“ΔBRET ratio, MEK1 recruitment” below) (V2R-WT; Data1) was 0.008 and the “ΔBRET ratio, MEK1 recruitment” value (V2R-WT; Data2) was 0.005. For the same substance, the “ΔBRET ratio, MEK1 recruitment” value (V2R-WT; Data3) was 0.008, the “recruitment of MEK1 to arrestin2” value (V2R-WT; wild-type V2 receptor, in words) was “significantly increased” and the “MEK1-arrestin2 association in response to vasopressin stimulation” value (shortened to “MEK1-arrestin2 association in response”) (V2R-3 (V2R-S357A); S357A mutation of V2R, in words) was “almost abolished”. For the same substance, the “ΔBRET ratio, MEK1 recruitment” value (V2R-3 (V2R-S357A); Data1) was 0, the “ΔBRET ratio, MEK1 recruitment” value (V2R-3 (V2R-S357A); Data2) was 0.001 and the “ΔBRET ratio, MEK1 recruitment” value (V2R-3 (V2R-S357A); Data3) was 0.001. For the same substance, the “MEK1-arrestin2 association in response” value ([2]; S363A-S364A mutations of V2R, in words) was “almost abolished”, the “ΔBRET ratio, MEK1 recruitment” value ([2]; Data1) was 0 and the “ΔBRET ratio, MEK1 recruitment” value ([2]; Data2) was 0.001. The “ΔBRET ratio, MEK1 recruitment” value ([2]; Data3) was 0, the “MEK1-arrestin2 association in response” value (V2R-4 (V2R-T360A); T360A mutation of V2R, in words) was “almost abolished” and the “ΔBRET ratio, MEK1 recruitment” value (V2R-4 (V2R-T360A); Data1) was 0. For the same substance, the “ΔBRET ratio, MEK1 recruitment” value (V2R-4 (V2R-T360A); Data2) was -0.002, the “ΔBRET ratio, MEK1 recruitment” value (V2R-4 (V2R-T360A); Data3) was -0.003 and the “ΔBRET ratio, MEK1 recruitment” value (V2R-1 (V2R-T347A) [3]; Data1) was 0.008. For the same substance, the “ΔBRET ratio, MEK1 recruitment” value (V2R-1 (V2R-T347A) [3]; Data2) was 0.004, the “ΔBRET ratio, MEK1 recruitment” value (V2R-1 (V2R-T347A) [3]; Data3) was 0.005 and the “recruitment of MEK1 to arrestin2” value (V2R-1 (V2R-T347A) [3]; V2 receptor T347A mutant, in words) was “significantly increased”. For the same substance, the “EC50 of vasopressin-induced V2R-arrestin2 interaction” value [4] was “similar”, the “Emax of arrestin2 recruitment compared to that of wild-type V2R” value (from here on “Emax … compared to that of wild-type V2R”) [5] was “approximately 30%” and the “Emax … compared to that of wild-type V2R” value (V2R-T360A (V2Rpp-4 site)) was “approximately 30%”. The “Emax … compared to that of wild-type V2R” value [6] was 60%.
